{"source": "ChEMBL document CHEMBL1201862", "about": "“PubChem BioAssay data set” (2004)", "key": {"[1]": {"target": "Serine/threonine-protein phosphatase PP1-alpha catalytic subunit (Homo sapiens, UniProt P62136)", "sequence (P62136 whole entry)": "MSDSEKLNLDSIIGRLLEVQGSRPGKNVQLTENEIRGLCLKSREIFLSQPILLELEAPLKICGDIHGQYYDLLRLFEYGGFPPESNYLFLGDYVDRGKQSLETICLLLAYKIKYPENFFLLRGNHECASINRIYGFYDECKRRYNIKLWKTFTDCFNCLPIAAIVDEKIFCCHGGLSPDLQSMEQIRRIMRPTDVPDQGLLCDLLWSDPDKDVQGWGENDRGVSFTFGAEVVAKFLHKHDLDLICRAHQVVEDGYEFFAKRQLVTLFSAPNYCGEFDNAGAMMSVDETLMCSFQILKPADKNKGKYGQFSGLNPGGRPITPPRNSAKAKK", "test": "inhibition of protein phosphatase 1 activity – biochemical, fluorescence, dose response (AID 2394)"}, "[2]": {"target": "Serine/threonine-protein phosphatase (Homo sapiens, UniProt Q9BPW0)", "sequence (Q9BPW0 whole entry)": "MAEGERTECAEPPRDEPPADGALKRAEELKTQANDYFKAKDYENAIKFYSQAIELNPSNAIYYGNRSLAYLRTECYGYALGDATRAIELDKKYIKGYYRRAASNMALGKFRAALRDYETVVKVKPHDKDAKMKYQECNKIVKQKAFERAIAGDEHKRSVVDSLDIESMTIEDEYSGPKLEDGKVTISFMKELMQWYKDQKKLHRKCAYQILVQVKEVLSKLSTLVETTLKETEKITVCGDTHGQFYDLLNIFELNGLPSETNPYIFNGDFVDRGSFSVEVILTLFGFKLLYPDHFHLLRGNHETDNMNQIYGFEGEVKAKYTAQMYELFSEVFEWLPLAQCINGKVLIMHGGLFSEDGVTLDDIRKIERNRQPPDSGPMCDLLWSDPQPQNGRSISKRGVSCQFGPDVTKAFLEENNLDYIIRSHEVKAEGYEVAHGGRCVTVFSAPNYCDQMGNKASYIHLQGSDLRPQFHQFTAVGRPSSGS", "test": "inhibition of protein phosphatase 5 activity – biochemical, fluorescence, dose response (AID 2395)"}, "Vero [3]": {"tested_on": "Vero", "test": "Vero cell viability after compound exposure – synthesized analogs, set II, cytotoxicity control for West Nile virus antiviral project, SAR follow-up (AID 2402)", "type": "functional", "conditions": "Chlorocebus sabaeus"}, "Vero [4]": {"tested_on": "Vero", "test": "Vero 76 cell viability after compound exposure – Vero 76 cells, synthesized analogs, cytotoxicity control for West Nile virus antiviral project, SAR follow-up (AID 2414)", "type": "functional", "conditions": "Chlorocebus sabaeus"}, "[5]": {"test": "A Cell Based Assay for the Identification of Probe candidate Compounds with Anti- Venezuelan Equine Encephalitis virus. [Related pubchem assays: 2409, 2419, 1621, 2238, 2405, 2024, 2065, 2402, 2414, 1635, 1650, 2244 ]", "type": "functional"}, "[6]": {"target": "Latent membrane protein 1 (Human herpesvirus 4 (strain B95-8), UniProt P03230)", "sequence (P03230 whole entry)": "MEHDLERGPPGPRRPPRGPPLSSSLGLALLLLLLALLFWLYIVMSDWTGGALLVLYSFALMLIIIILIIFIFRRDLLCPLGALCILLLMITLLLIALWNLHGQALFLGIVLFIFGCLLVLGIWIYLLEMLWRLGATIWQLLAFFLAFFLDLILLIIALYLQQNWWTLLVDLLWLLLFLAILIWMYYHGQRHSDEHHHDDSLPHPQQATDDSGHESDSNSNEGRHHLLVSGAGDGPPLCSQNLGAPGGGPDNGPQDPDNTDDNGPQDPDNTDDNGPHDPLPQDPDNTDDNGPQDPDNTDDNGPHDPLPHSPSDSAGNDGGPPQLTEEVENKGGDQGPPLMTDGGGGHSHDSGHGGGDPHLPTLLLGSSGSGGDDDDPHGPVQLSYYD", "test": "LMP1 TES1 pathway selectivity over dsRED control – imaging, HEK293T, dual-color eGFP/dsRED, cherry-picks, selectivity assay for LMP1 NF-kB inhibitor project, dose response (AID 588398)", "type": "functional, cell-based"}, "cells [7]": {"test": "cells", "type": "functional, cell-based"}, "[8]": {"test": "Trypanosoma cruzi growth suppression in host cells – NIH3T3 host cells, beta-gal luminescence, confirmation (AID 2044);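 further: luminescent beta-galactosidase reporter signal from transgenic T. cruzi replicating inside host cells; inhibitors lower the luminescence signal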", "type": "functional, cell-based"}, "[9]": {"target": "Induced myeloid leukemia cell differentiation protein Mcl-1 (Homo sapiens, UniProt Q07820)", "sequence (Q07820 whole entry)": "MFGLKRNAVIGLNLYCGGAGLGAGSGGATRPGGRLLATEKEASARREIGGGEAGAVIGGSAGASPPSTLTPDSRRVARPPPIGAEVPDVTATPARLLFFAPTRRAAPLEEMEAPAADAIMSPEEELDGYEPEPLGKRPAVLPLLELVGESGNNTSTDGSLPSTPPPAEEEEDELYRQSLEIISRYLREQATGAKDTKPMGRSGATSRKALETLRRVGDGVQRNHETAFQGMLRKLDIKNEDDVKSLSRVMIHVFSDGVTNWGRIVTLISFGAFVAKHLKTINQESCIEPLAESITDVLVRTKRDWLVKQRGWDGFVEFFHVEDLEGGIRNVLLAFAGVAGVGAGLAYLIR", "test": "blockers of MCL1 binding to BIM peptide – biochemical, fluorescence polarization, BIM-BH3 peptide, 1536-well, dose response (AID 2217)"}, "Bcl-2-like protein 1": {"target": "Bcl-2-like protein 1 (Homo sapiens, UniProt Q07817)", "sequence (Q07817 whole entry)": "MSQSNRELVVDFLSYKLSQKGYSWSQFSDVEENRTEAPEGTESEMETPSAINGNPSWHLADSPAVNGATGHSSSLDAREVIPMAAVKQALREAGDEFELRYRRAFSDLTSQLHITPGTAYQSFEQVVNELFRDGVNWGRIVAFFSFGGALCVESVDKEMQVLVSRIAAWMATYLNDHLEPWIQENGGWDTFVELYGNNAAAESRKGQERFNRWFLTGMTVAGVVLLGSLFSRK", "test": "blockers of BCLXL peptide binding – biochemical, fluorescence polarization, 1536-well, selectivity assay for MCL1 inhibitor project, dose response (AID 2218)"}, "[10]": {"test": "NIH3T3 cell viability loss – ATP luminescence, mouse fibroblasts, counter-screen, dose response (AID 2010);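 further: cells exposed to compound for about 90 hours before reading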", "type": "functional, cell-based"}, "HEK293 [11]": {"tested_on": "HEK293", "test": "EBV LMP1 TES2 canonical NF-kB signalling blockers – cell-based, HEK293, luciferase, cherry-pick, dose response (AID 588343)", "type": "functional", "conditions": "Homo sapiens"}, "cells [12]": {"test": "cells", "type": "functional, cell-based", "remark": "listed apart in the source"}, "[13]": {"test": "microbe, parasite or virus in culture", "type": "functional", "conditions": "Mycobacterium tuberculosis"}, "[14]": {"test": "M. tuberculosis growth inhibition, HTS (AID 449762)", "type": "functional"}, "[15]": {"test": "Luminescence Cell-Based Dose Response to Identify Activators of Luciferase Translation or Activity in H4-C Neuroglioblastoma Cells. [Related pubchem assays: 1829 (Project Summary), 1814 (Primary HTS)]", "type": "functional"}, "[16]": {"test": "Luminescence Cell-Based Dose Response to Identify Activators of 5'UTR Stem-Loop Driven Prion Protein mRNA Translation in H4-C Neuroglioblastoma Cells. [Related pubchem assays: 1829 (Project Summary), 1814 (Primary HTS)]", "type": "functional"}, "[17]": {"test": "Luminescence Cell-Based Dose Response HTS to Identify Activators of Luciferase Translation or Activity in H4 […] Cells. [Related pubchem assays: 1829 (Project Summary), 1814 (Primary HTS)]", "type": "functional"}, "H4": {"tested_on": "H4", "test": "Luminescence Cell-Based Dose Response HTS to Identify Activators of 5'UTR Stem-Loop Driven Prion Protein mRNA Translation in H4 Neuroglioblastoma Cells. [Related pubchem assays: 1829 (Project Summary), 1814 (Primary HTS)]", "type": "functional", "conditions": "Homo sapiens"}, "[18]": {"test": "Luminescence Cell-Based Dose Confirmation to Identify Activators of 5'UTR Stem-Loop Driven Alpha-Synuclein mRNA Translation in H4 Neuroglioblastoma Cells. [Related pubchem assays: 1829 (Project Summary), 1814 (Primary HTS)]", "type": "functional"}, "[19]": {"tested_on": "Streptococcus sp. 'group A'", "test": "Streptococcus pyogenes SK(-)GAS viability under kanamycin – luminescence, BacTiterGlo, confirmation, counter-screen for streptokinase expression inhibitor project, dose response (AID 1900)", "type": "functional, organism-based"}, "HEK293 [20]": {"tested_on": "HEK293", "test": "cells", "type": "functional, cell-based", "conditions": "Homo sapiens"}, "[21]": {"test": "decrease of insulin promoter-GFP reporter – imaging, high-content screening, mouse beta cells (AID 1628)", "type": "functional", "conditions": "MIN6"}, "HEK293 [22]": {"tested_on": "HEK293", "test": "cells", "type": "functional, cell-based", "conditions": "Homo sapiens", "remark": "listed apart in the source"}, "Streptococcus": {"tested_on": "Streptococcus", "test": "GAS UMAA2166 growth inhibition – luminescence, BacTiterGlo, counter-screen for streptokinase expression inhibitor project, dose response (AID 1915);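 further: potency for reduction of bacterial viability or growth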", "type": "functional, organism-based"}, "Genome polyprotein": {"target": "Genome polyprotein (Hepatitis C virus, UniProt Q2Q167)", "sequence (Q2Q167 whole entry)": "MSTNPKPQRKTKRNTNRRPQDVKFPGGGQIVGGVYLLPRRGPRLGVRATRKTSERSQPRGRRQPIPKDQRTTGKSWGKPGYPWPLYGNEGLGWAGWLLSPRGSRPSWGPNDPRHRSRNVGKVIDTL", "test": "disruption of hepatitis C core self-association – biochemical, TR-FRET, dose response (AID 2159);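 further: blocks dimerization of HCV core protein measured by TR-FRET between tagged core106 pairs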", "design": "species or system Hepacivirus hominis"}, "HEK293 [23]": {"tested_on": "HEK293", "test": "NOD2 signaling inhibitors in MDP-stimulated cells, cell-based, uHTS, luminescence (AID 2001)", "type": "functional", "conditions": "Homo sapiens"}, "[24]": {"test": "MIN6 cell viability loss – mouse insulinoma, cytotoxicity control, dose response (AID 2122);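 further: confirmatory high-throughput counterscreen run to flag cytotoxic compounds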", "type": "functional"}, "HEK293 [25]": {"tested_on": "HEK293", "test": "inhibition of NOD1-driven NF-kB reporter – cell-based, luminescence, uHTS, primary screen (AID 1578)", "type": "functional", "conditions": "Homo sapiens"}, "Bcl-2-related protein A1 [26]": {"target": "T1, Bcl-2-related protein A1 (Mus musculus, UniProt Q07440)", "T1 sequence (Q07440 whole entry)": "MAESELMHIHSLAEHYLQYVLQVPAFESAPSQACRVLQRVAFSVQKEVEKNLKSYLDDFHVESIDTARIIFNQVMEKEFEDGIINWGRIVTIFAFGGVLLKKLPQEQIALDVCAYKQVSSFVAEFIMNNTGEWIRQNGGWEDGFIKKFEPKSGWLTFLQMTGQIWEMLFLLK", "test": "Bfl-1 binding inhibitors, SAR follow-up, biochemical, fluorescence polarization (AID 1070)"}, "Bcl-2-related protein A1 [27]": {"target": "T1, Bcl-2-related protein A1", "test": "small-molecule antagonists of Bfl-1/BH3 interaction – biochemical, TR-FRET, mouse Bfl-1, confirmation (AID 621);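 further: TR-FRET binding of GST-Bfl-1 to FITC-labelled Bid peptide via terbium antibody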"}, "[28]": {"target": "Glyceraldehyde-3-phosphate dehydrogenase (Homo sapiens, UniProt P04406)", "sequence (P04406 whole entry)": "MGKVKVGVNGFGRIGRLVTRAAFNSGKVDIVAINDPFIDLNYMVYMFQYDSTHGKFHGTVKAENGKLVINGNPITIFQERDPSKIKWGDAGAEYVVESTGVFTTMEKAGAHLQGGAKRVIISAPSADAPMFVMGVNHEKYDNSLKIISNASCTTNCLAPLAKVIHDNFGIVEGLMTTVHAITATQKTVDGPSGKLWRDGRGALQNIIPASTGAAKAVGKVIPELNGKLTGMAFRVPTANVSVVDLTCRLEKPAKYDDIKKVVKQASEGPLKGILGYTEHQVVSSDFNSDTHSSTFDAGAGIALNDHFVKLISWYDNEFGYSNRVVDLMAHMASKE"}}, "note": "The source made the active and inactive calls.", "data": [{"smiles": "COCCNC(=O)c1c(N)n(CCC(C)C)c2nc3ccccc3nc12", "values": [{"measurement": "IC50", "setting": "[1]", "value": "56.5 µM (not active)"}, {"measurement": "IC50", "setting": "[2]", "value": "13.4 µM (not active)"}]}, {"smiles": "COc1cccc2c(=O)n(-c3ccccc3)c(SCC(=O)Nc3ccc4c(c3)CCC4)nc12", "values": [{"measurement": "CC50", "setting": "Vero [3]", "value": "> 200 µM (active)"}, {"measurement": "CC50", "setting": "Vero [4]", "value": "< 0.26 µM (active)"}, {"measurement": "IC50", "setting": "[5]", "value": "< 0.26 µM (active)"}]}, {"smiles": "Nc1ccc(C(=O)N/N=C\\c2cc(N=Nc3cccc4ccccc34)ccc2O)cc1", "values": [{"measurement": "AC50", "setting": "[6]", "value": "30.2 µM (active)"}, {"measurement": "EC50", "setting": "cells [7]", "value": "7.62 µM (active)"}, {"measurement": "EC50", "setting": "[8]", "value": "1.12 µM (active)"}, {"measurement": "IC50", "setting": "[9]", "value": "6.83 µM (active)"}, {"measurement": "IC50", "setting": "Bcl-2-like protein 1", "value": "> 109 µM (not active)"}, {"measurement": "EC50", "setting": "[10]", "value": "7.41 µM (active)"}, {"measurement": "AC50", "setting": "HEK293 [11]", "value": "11.1 µM (active)"}, {"measurement": "EC50", "setting": "cells [12]", "value": "> 350 µM (not active)"}]}, {"smiles": "CN1CCN(c2ccc(C(=O)c3cn(-c4ccc(F)c(Cl)c4)nn3)cc2)CC1", "values": [{"measurement": "CC50", "setting": "[13]", "value": "15 µM (active)"}, {"measurement": "IC50", "setting": "[14]", "value": "> 100 µM (active)"}]}, {"smiles": "CC(=O)Nc1ccc2c(c1)ncn2-c1ccccc1", "values": [{"measurement": "EC50", "setting": "[15]", "value": "0.46 µM (active)"}, {"measurement": "EC50", "setting": "[16]", "value": "0.608 µM (active)"}, {"measurement": "EC50", "setting": "[17]", "value": "< 0.1 µM (inconclusive)"}, {"measurement": "EC50", "setting": "H4", "value": "> 120 µM (not active)"}, {"measurement": "EC50", "setting": "[18]", "value": "0.218 µM (active)"}]}, {"smiles": "CC(C)=CCc1c(O)cc2oc3c(CC=C(C)C)c(O)c(O)c(CC=C(C)C)c3c(=O)c2c1O", "note": "[GARCINONE E]", "values": [{"measurement": "EC50", "setting": "[19]", "value": "0.813 µM (active)"}, {"measurement": "IC50", "setting": "HEK293 [20]", "value": "> 20 µM (inactive)"}, {"measurement": "IC50", "setting": "[21]", "value": "2.79 µM (active)"}, {"measurement": "IC50", "setting": "HEK293 [22]", "value": "6.77 µM (active)"}, {"measurement": "EC50", "setting": "Streptococcus", "value": "3.02 µM (active)"}, {"measurement": "IC50", "setting": "Genome polyprotein", "value": "> 49.8 µM (not active)"}, {"measurement": "IC50", "setting": "HEK293 [23]", "value": "4.65 µM (inactive)"}, {"measurement": "IC50", "setting": "[24]", "value": "3.46 µM (active)"}, {"measurement": "EC50", "setting": "HEK293 [25]", "value": "4.78 µM (active)"}]}, {"smiles": "O=C1C(Cl)=C(Nc2ccc(F)cc2)C(=O)N1c1ccc(Cl)c(Cl)c1", "values": [{"measurement": "IC50", "setting": "Bcl-2-related protein A1 [26]", "value": "> 100 µM (not active)"}, {"measurement": "IC50", "setting": "Bcl-2-related protein A1 [27]", "value": "96.5 µM (active)"}, {"measurement": "IC50", "setting": "[28]", "value": "> 100 µM (not active)"}]}]}
